The values below are quoted from earlier work in paper PMC9792171, “Design and synthesis of new thiazolidinone/uracil derivatives as antiproliferative agents targeting EGFR and/or BRAF^V600E” (Frontiers in Chemistry, 2022).

Structures are written as SMILES.

Data set [1] concerns human lung carcinoma cell lines. Set-up: method as in Xiong et al., 2008. Conditions: panel of human lung carcinoma cell lines; ref Xiong et al., 2008; read-out: IC50, inhibition of cell proliferation; cited from earlier work.
The subject of data set [2] is lung cancer (A549) cell line. Further details: method as in Aziz et al., 2021. The note with it: ref Aziz et al., 2021; read-out: IC50 against lung cancer (A549) cell line; cited from earlier work.
The target of another data set is T1, EGFR (Homo sapiens, UniProt P00533).
T1 construct: EGFR cytoplasmic domain (EGFR-CD, amino acids 645–1186); His6 (N); made in house; host or cells: Sf-9 insect cells (baculovirus; pBlueBacHis2B and pFASTBacHTc)
Further details: method as in Aziz et al., 2021. The note with it: ref Aziz et al., 2021; cited from earlier work.

T1 sequence (P00533 669-1210): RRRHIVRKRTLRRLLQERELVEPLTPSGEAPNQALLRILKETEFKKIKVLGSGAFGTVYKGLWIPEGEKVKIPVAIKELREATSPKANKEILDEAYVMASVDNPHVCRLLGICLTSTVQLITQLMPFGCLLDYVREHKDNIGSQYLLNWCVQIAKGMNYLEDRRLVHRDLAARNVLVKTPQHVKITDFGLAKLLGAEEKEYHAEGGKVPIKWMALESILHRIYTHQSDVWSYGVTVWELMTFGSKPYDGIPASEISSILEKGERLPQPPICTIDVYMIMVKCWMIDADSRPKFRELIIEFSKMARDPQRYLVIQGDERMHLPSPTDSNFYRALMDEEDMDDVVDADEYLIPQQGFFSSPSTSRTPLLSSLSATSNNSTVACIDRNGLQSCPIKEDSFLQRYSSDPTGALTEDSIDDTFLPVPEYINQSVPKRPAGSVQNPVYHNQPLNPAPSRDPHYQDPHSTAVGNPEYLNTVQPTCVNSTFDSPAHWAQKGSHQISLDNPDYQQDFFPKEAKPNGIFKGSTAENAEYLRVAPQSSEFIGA

On to `COC(=O)c1ccccc1NC(=S)N(CCN1CCCCC1)Cc1cc2cc(C)ccc2[nH]c1=O` [DC27], for which the IC50 in data set [1] is 2500 to 12900 nM.

For `O=C1N=C(Nn2c(-c3ccccc3)nc3ccccc3c2=O)S/C1=C/c1ccccc1` [Compound III], the IC50 in data set [2] is 720 nM; on EGFR, 65 nM.
